US20070142362A1, “4,5-Dihydro-(1H)-pyrazole derivatives as cannabinoid CB1 receptor modulators” (SOLVAY PHARMACEUTICALS B.V., priority 2005, published 2007)

Assays:
[1] = target: T1, human cannabinoid CB1 receptor (Homo sapiens, UniProt P21554); test: In vitro affinity for cannabinoid-CB1 receptors ([3H]CP-55,940 radioligand binding, CHO cell membranes); conditions: mean of at least three independent experiments, read-out: Human CB1 receptor binding pKi (converted)
T1 construct: expressed in transfected cells; host or cells: CHO cells, stably transfected; membrane preparation
T1 sequence (P21554 whole entry): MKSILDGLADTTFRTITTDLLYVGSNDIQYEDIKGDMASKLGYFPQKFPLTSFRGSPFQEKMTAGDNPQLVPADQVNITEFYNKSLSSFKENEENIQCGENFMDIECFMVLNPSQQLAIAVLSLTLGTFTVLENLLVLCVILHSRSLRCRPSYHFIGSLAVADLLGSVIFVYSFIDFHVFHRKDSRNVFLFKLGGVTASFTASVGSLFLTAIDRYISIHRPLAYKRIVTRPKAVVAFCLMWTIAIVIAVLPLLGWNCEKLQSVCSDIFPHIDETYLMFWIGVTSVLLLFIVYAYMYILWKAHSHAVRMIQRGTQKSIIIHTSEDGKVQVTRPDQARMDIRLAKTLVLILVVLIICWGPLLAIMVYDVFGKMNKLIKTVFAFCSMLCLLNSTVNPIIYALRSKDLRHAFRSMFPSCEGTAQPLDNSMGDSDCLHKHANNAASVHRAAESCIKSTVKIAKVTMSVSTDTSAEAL
Protocol: In Vitro Affinity for Cannabinoid-CB1 Receptors
(§1) The affinity of the compounds of the invention for cannabinoid CB1 receptors can be determined using membrane preparations of Chinese hamster ovary (CHO) cells in which the human cannabinoid CB1 receptor is stably transfected in conjunction with [^3H]CP-55,940 as radioligand. After incubation of a freshly prepared cell membrane preparation with the [^3H]-ligand, with or without addition of compounds of the invention, separation of bound and free ligand is performed by filtration over glassfiber filters. Radioactivity on the filter is measured by liquid scintillation counting.

[2] = target: T2, human cannabinoid CB2 receptor (Homo sapiens, UniProt P34972); test: In vitro affinity for cannabinoid-CB2 receptors ([3H]CP-55,940 radioligand binding, CHO cell membranes); conditions: mean of at least three independent experiments, read-out: Human CB2 receptor binding pK1 (converted)
T2 construct: expressed in transfected cells; host or cells: CHO cells, stably transfected; membrane preparation
T2 sequence (P34972 whole entry): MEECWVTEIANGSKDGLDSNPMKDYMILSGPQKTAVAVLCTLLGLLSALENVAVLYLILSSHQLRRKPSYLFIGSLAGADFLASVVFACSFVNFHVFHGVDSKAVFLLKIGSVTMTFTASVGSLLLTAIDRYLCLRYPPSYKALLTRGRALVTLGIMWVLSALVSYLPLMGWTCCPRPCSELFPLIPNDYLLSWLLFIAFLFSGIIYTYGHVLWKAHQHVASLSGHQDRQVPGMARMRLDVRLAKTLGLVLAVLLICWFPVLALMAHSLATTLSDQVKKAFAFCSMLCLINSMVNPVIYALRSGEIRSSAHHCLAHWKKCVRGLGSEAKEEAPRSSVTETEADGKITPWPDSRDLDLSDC
Protocol: In Vitro Affinity for Cannabinoid-CB2 Receptors
as §1, with “CB2” for “CB1”

human CB1 receptor = target: T3, human CB1 receptor (Homo sapiens, UniProt P21554); test: In vitro cannabinoid-CB1 receptor (ant)agonism: [3H]-arachidonic acid release in CHO cells; assay type: cell-based; conditions: CHO cells with human CB1 receptor, read-out: Human CB1 Arachidonic acid release (CB1) pEC50 (converted)
T3 construct: expressed in transfected cells; host or cells: CHO cells
T3 sequence (P21554 whole entry): as the sequence (P21554 whole entry) above
Protocol: In Vitro Cannabinoid-CB1Receptor (Ant)Agonism
In vitro CB1 receptor antagonism/agonism can be assessed with the human CB1 receptor cloned in Chinese hamster ovary (CHO) cells. CHO cells are grown in a Dulbecco's Modified Eagle's medium (DMEM) culture medium, supplemented with 10% heat-inactivated fetal calf serum. Medium is aspirated and replaced by DMEM, without fetal calf serum, but containing [^3H]-arachidonic acid and incubated overnight in a cell culture stove (5% CO2/95% air; 37° C.; water-saturated atmosphere). During this period [^3H]-arachidonic acid is incorporated in membrane phospholipids. On the test day, medium is aspirated and cells are washed three times using 0.5 ml DMEM, containing 0.2% bovine serum albumin (BSA). CB1 agonist stimulation leads to activation of PLA2 followed by release of [^3H]-arachidonic acid into the medium. This CB1 agonist-induced release is concentration-dependently antagonized by CB1 receptor antagonists, such as for example rimonabant.

human CB2 receptor = target: T4, human CB2 receptor (Homo sapiens, UniProt P34972); test: In vitro cannabinoid-CB2 receptor (ant)agonism: forskolin-stimulated cAMP accumulation (adenylate cyclase activity) in CHO K1 cells; assay type: cell-based; conditions: for EC50: agonism, 3x10^-7 M forskolin, read-out: Human CB2 CB2-mediated adenylate cyclase activity pEC50 (converted)
T4 construct: host or cells: CHO K1 cells
T4 sequence (P34972 whole entry): as the sequence (P34972 whole entry) above
Protocol: In Vitro Cannabinoid-CB2 Receptor (Ant)Agonism
Functional activity at the cannabinoid CB2 receptor was assessed using a forskolin-stimulated cAMP accumulation assay. The ability of compounds to stimulate and inhibit adenylate cyclase activity was assessed in Chinese ovarian hamster (CHO) K1 cells expressing human CB2 (Euroscreen, Brussel) receptor. CHO cells were grown in a CHO—S—SFM-II culture medium, supplemented with 10% heat-inactivated foetal calf serum, 2 mM glutamine, 400 μg/ml Hygromycine B and 500 μg/ml G418 at 37° C. in 93% air/5% CO2. For incubation with test compounds, confluent cultures grown in 24 well plates were used. Each condition or substance was routinely tested in quadruplicate. Cells were loaded with 1 mCi [^3H]-adenine in 0.5 ml medium per well. After 2 hours, cultures were washed with 0.5 ml PBS containing 1 mM IBMX and incubated for 20 minutes with 0.5 ml PBS containing 1 mM IBMX and 3×10^−7 M forskolin with or without the test compound. Antagonistic effects of test compounds were determined as inhibition of 0.1 μM JWH-133-decreased [^3H]cAMP formation. After aspiration the reaction was stopped with 1 ml trichloroacetic acid (5% w/v). The [3H]-ATP and [^3H]-cAMP formed in the cellular extract were assayed as follows: a volume of 0.8 ml of the extract was passed over Dowex (50WX-4200-400 mesh) and aluminum oxide columns, eluted with water and 0.1 M imidazole (pH=7.5). Eluates were mixed with 7 ml Ultima-Flo [AP] and the β-radioactivity was counted with a liquid scintillation counter. The conversion of [^3H]-ATP into [^3H]-cAMP was expressed as the ratio in percentage radioactivity in the cAMP fraction as compared to the combined radioactivity in both cAMP and ATP fractions, and basal activity was subtracted to correct for spontaneous activity. […] Compounds were studied in a concentration range of 10^−10 M to 10^−6M. pEC50 and the pA2 were calculated according to Cheng-Prusoff equation (Cheng and Prusoff, 1973). […]

| Compound | melting point | Ki [1] | Ki [2] | EC50 (human CB1 receptor) | EC50 (human CB2 receptor) | Human CB2 CB2-mediated adenylate cyclase activity pA2 (human CB2 receptor; antagonism of 0.1 μM JWH-133-decreased [3H]cAMP formation) |
| --- | --- | --- | --- | --- | --- | --- |
| CCCCCC1=NN(C(=O)NC2C3CC4CC(C3)CC2C4)CC1c1ccccc1 (centres unmarked) | 71 °C |  |  |  |  |  |
| COc1ccc(NC(=O)N2CC(c3ccc(Cl)cc3)C(Cc3ccc(Cl)cc3)=N2)cc1 (centres unmarked) | 116 to 119 °C |  |  |  |  |  |
| CCCCCC1=NN(C(=O)NC[C@@H]2CC[C@H]3C[C@@H]2C3(C)C)CC1c1ccccc1 (relative stereo) [Compound 1, N-[(1R,2S,5R)-rel-6,6-dimethylbicyclo[3.1.1]heptan-2-methyl]-3-(n-pentyl)-4-phenyl-4,5-dihydro-(1H)-pyrazole-1-carboxamide] |  | 3.98 nM | 12.6 nM | 2000 nM |  |  |
| CCCCC1=NN(C(=O)NC[C@@H]2CC[C@H]3C[C@@H]2C3(C)C)CC1c1ccccc1 (relative stereo) [Compound 7, N-[(1R,2S,5R)-rel-6,6-dimethylbicyclo[3.1.1]heptan-2-methyl]-3-(n-butyl)-4-phenyl-4,5-dihydro-(1H)-pyrazole-1-carboxamide] |  | 39.8 nM | 10 nM | 631 nM |  |  |
| CCCCCC1=NN(S(=O)(=O)NC[C@@H]2CC[C@H]3C[C@@H]2C3(C)C)CC1c1ccccc1 (relative stereo) [Compound 130, N-[(1R,2S,5R)-rel-6,6-dimethylbicyclo[3.1.1]heptan-2-methyl]-3-(n-pentyl)-4-phenyl-4,5-dihydro-(1H)-pyrazole-1-sulfonamide] |  | 316 nM | 126 nM |  |  |  |
| CCCCCC1=NN(C(=O)NCC23CC4CC(CC(C4)C2)C3)CC1c1ccccc1 (centres unmarked) [Compound 11, N-(1-Adamantyl)methyl-3-(n-pentyl)-4-phenyl-4,5-dihydro-(1H)-pyrazole-1-carboxamide] |  | 15.8 nM | 7.94 nM | 2000 nM |  |  |
| CCCCCC1=NN(C(=O)NCC2CCCCC2)CC1c1ccccc1 (centres unmarked) [Compound 12, N-(Cyclohexylmethyl)-3-(n-pentyl)-4-phenyl-4,5-dihydro-(1H)-pyrazole-1-carboxamide] |  | 15.8 nM | 50.1 nM |  |  |  |
| CCCCCC1=NN(C(=O)N[C@H]2C[C@H]3CC[C@]2(C)C3(C)C)CC1c1ccccc1 (stereo partly drawn) [Compound 13, N-[Endo-(1R,2S,4R)-1,7,7-trimethylbicyclo[2.2.1]hept-2-yl]-3-(n-pentyl)-4-phenyl-4,5-dihydro-(1H)-pyrazole-1-carboxamide] |  | 7.94 nM | 7.94 nM | 0.501 nM |  |  |
| CCCCCC1=NN(C(=O)Nc2cccc3ccccc23)CC1c1ccccc1 (centres unmarked) [Compound 18, N-(1-Naphtyl)-3-(n-pentyl)-4-phenyl-4,5-dihydro-(1H)-pyrazole-1-carboxamide] |  | 6.31 nM | 31.6 nM |  |  |  |
| CCCCC1=NN(C(=O)NC(C)(C)Cc2ccccc2)CC1c1cccc(F)c1 (centres unmarked) [Compound 39, N-(2-phenyl-1,1-dimethyl-ethyl)-3-(n-butyl)-4-(3-fluorophenyl)-4,5-dihydro-(1H)-pyrazole-1-carboxamide] |  | 3980 nM | 126 nM |  | 7.94 nM |  |
| CCCCC1=NN(C(=O)NC(C)(C)Cc2ccccc2)CC1c1ccccc1F (centres unmarked) [Compound 40, N-(2-phenyl-1,1-dimethyl-ethyl)-3-(n-butyl)-4-(2-fluorophenyl)-4,5-dihydro-(1H)-pyrazole-1-carboxamide] |  | 1580 nM | 158 nM |  | 7.94 nM |  |
| O=C(Nc1ccccc1)N1CC(c2ccc(Cl)cc2)C(Cc2ccc(Cl)cc2)=N1 (centres unmarked) [Compound 41, N-Phenyl-3-(4-chlorobenzyl)-4-(4-chlorophenyl)-4,5-dihydro-(1H)-pyrazole-1-carboxamide] | 156 °C | 316 nM | 200 nM |  |  |  |
| CC1(C)[C@@H]2CC[C@@]1(C)[C@@H](NC(=O)N1CC(c3ccccc3)C(CC3CC3)=N1)C2 (stereo partly drawn) [Compound 54, N-[Endo-(1R,2S,4R)-1,7,7-trimethylbicyclo[2.2.1]hept-2-yl]-3-(cyclopropylmethyl)-4-phenyl-4,5-dihydro-(1H)-pyrazole-1-carboxamide] |  | 25.1 nM | 39.8 nM | 251 nM |  |  |
| CCCCCC1=NN(C(=O)c2cccc3ccccc23)CC1c1ccccc1 (centres unmarked) [Compound 87, 1-(1-Naphtoyl)-3-(n-pentyl)-4-phenyl-4,5-dihydro-(1H)-pyrazole] |  | 79.4 nM | 100 nM | 15.8 nM |  |  |
| CCCCCC1=NN(C(=O)N[C@H]2C[C@H]3CC[C@]2(C)C3(C)C)CC1c1ccccc1 (stereo partly drawn) [Compound 97, N-Endo-[(1R,2S,4R)-1,7,7-trimethylbicyclo[2.2.1]hept-2-yl]-3-(n-pentyl)-4-phenyl-4,5-dihydro-(1H)-pyrazole-1-carboxamide] |  | 5.01 nM | 5.01 nM | < 1 nM |  | 9.2 |
| CCCCCC1=NN(C(=O)NC2CCCCCC2)CC1c1ccccc1 (centres unmarked) [Compound 109, N-cycloheptyl-3-(n-pentyl)-4-phenyl-4,5-dihydro-(1H)-pyrazole-1-carboxamide] |  | 6.31 nM | 25.1 nM |  |  |  |
